Patent publication US11999727B2 (Tango Therapeutics, Inc., priority 2020, dated 2024)
pIC50: −log10 of the molar value.

Legend:
[1] = tested on: HAP1 MTAP-deleted cell line; experiment: SDMA in-cell western assay, HAP1 MTAP-deleted; format: cell-based; details: for pIC50: Homo sapiens, HAP1, SDMA in-cell western, HAP1 MTAP-deleted; for MTAP intact/deleted ratio: SDMA in-cell western
Outline: (§1)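 Isogenic HAP1 pair: the MTAP-intact line expresses endogenous MTAP, and the deleted line is MTAP-null. Symmetric dimethylarginine was detected by in-cell western and IC50 values derived for each line.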

[2] = tested on: HAP1 MTAP-deleted cell line; experiment: Viability assay, MTAP-deleted cell line; format: cell-based; details: Homo sapiens, read-out: HAP1 MTAP deleted viability
Source text: Table 1 additionally indicates IC50 values in a viability assay for the MTAP-deleted cell line (column 10), indicating the effect of treatment with compound on cell survival.

PRMT5 [3] = biological target: T1, PRMT5 (Homo sapiens, UniProt O14744); experiment: PRMT5 biochemical IC50 assay with no cofactor; details: PRMT5, no cofactor
T1 construct: purchased Viva (custom protein)
T1 sequence (O14744 whole entry): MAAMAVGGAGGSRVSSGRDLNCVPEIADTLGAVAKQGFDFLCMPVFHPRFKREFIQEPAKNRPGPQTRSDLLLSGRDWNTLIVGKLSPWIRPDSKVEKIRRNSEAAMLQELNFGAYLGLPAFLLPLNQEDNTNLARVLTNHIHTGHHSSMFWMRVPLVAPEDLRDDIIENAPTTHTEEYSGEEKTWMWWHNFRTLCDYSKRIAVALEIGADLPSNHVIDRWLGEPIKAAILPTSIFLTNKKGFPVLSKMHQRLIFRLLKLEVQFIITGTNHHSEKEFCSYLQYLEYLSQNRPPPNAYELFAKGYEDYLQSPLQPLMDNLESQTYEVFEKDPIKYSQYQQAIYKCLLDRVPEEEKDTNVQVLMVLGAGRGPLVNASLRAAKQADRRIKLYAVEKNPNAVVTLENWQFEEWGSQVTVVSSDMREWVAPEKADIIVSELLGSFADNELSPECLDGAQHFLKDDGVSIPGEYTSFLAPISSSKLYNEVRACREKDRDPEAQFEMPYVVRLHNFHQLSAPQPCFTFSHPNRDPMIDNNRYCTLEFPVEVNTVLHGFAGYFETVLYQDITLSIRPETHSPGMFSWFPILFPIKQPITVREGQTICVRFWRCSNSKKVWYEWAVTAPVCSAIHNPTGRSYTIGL
T1 sequence (Q9BQA1 whole entry partner): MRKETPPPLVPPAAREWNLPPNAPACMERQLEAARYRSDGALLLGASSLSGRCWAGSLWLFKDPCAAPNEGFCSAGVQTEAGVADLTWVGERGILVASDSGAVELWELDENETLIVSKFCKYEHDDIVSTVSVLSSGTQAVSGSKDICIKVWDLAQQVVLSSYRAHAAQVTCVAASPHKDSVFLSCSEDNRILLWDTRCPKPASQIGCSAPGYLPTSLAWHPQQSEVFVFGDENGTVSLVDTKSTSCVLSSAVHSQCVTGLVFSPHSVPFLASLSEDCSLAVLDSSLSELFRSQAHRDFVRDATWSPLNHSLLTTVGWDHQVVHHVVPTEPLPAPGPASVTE
Source text: Table 1 indicates IC50 values (μM) against PRMT5 for exemplary compounds in the presence of SAM as cofactor, with no cofactor, and with MTA as cofactor, respectively (columns 4-6). […] Ki values can be calculated from the IC50 values as described in the Examples section. As detailed in the Examples section, for the assay performed in the presence of SAM, IC50=Ki×1.5 (Ki=IC50/1.5).

PRMT5 [4] = biological target: T1, PRMT5; experiment: PRMT5 biochemical IC50 assay with MTA as cofactor; details: PRMT5, MTA as cofactor; read-out: MTA IC50
PRMT5 [5] = biological target: T1, PRMT5; experiment: PRMT5 biochemical IC50 assay with SAM as cofactor; details: PRMT5, SAM as cofactor; read-out: SAM IC50
[6] = tested on: HAP1 MTAP-intact cell line; experiment: SDMA in-cell western assay, HAP1 MTAP-intact; format: cell-based; details: Homo sapiens, HAP1, SDMA in-cell western, HAP1 MTAP-intact; read-out: MTAP HAP1 intact IC50
Outline: as §1

[7] = read-out: HAP1 MTAP deleted IC50
[8] = IC50 ratio HAP1 MTAP-intact vs HAP1 MTAP-deleted
[9] = HAP1, viability assay, MTAP-deleted cell line
[10] = read-out: HAP 1 MTAP deleted IC50
[11] = IC50 ratio HAP1 MTAP-intact / HAP1 MTAP-deleted
[12] = HAP1, viability, HAP1 MTAP-deleted cell line
[13] = read-out: No Cofactor/ rel IC50

| SMILES | pIC50 [1, 7] | MTAP intact/deleted ratio [1, 8] | pIC50 [2, 9] | pIC50 (PRMT5 [3]; read-out: No Cofactor/rel IC50) | pIC50 (PRMT5 [4]) | pIC50 (PRMT5 [5]) | pIC50 [6] | pIC50 [1, 10] | MTAP intact/deleted ratio [1, 11] | pIC50 [2, 12] | pIC50 (PRMT5 [3]; [13]) |
| --- | --- | --- | --- | --- | --- | --- | --- | --- | --- | --- | --- |
| CCc1cc(NC(=O)C(=O)N2C[C@@H](C)CC[C@@H]2c2cccc(CCN(C)C)c2)cnc1N [Compound 1226, N-(6-amino-5-ethylpyridin-3-yl)-2-((2R,5S)-2-(3-(2-(dimethylamino)ethyl)phenyl)-5-methylpiperidin-1-yl)-2-oxoacetamide] | > 7.00 | A (an IC50 ratio greater than or equal to 10 fold) | > 6.00 | > 7.30 | > 7.30 | 6.30 to 7.30 | 6.00 to 7.00 |  |  |  |  |
| CCc1cc(NC(=O)C(=O)N2C[C@@H](C)CC[C@@H]2c2ccc(CCN(C)C)cc2)cnc1N [Compound 1228, N-(6-amino-5-ethylpyridin-3-yl)-2-((2R,5S)-2-(4-(2-(dimethylamino)ethyl)phenyl)-5-methylpiperidin-1-yl)-2-oxoacetamide] | > 7.00 | A (an IC50 ratio greater than or equal to 10 fold) | > 6.00 | > 7.30 | > 7.30 | 6.30 to 7.30 | 6.00 to 7.00 |  |  |  |  |
| CCc1cc(NC(=O)C(=O)N2C[C@@H](C)CC[C@@H]2c2ccc(N3CCC(CN(C)CC)CC3)cc2)cnc1N [Compound 1232, N-(6-Amino-5-ethylpyridin-3-yl)-2-[(2R,5S)-2-[4-(4-{[ethyl(methyl)amino]methyl}piperidin-1-yl)phenyl]-5-methylpiperidin-1-yl]-2-oxoacetamide] | > 7.00 | A (an IC50 ratio greater than or equal to 10 fold) | > 6.00 | > 7.30 | > 7.30 | 6.30 to 7.30 | 6.00 to 7.00 |  |  |  |  |
| COc1ncc(NC(=O)C(=O)N2C[C@@H](C)CC[C@@H]2c2ccc3sc(C4CC5(C4)CN(C)C5)nc3c2)cc1C(N)=O [Compound 1236, 2-methoxy-5-(2-((2R,5S)-5-methyl-2-(2-(2-methyl-2-azaspiro[3.3]heptan-6-yl)benzo[d]thiazol-5-yl)piperidin-1-yl)-2-oxoacetamido)nicotinamide] | > 7.00 | A (an IC50 ratio greater than or equal to 10 fold) | > 6.00 | > 7.30 | > 7.30 | > 7.30 | > 7.00 |  |  |  |  |
| CCc1cc(NC(=O)C(=O)N2C[C@@H](C)CC[C@@H]2c2ccc3sc(C(C)(C)N(C)C)nc3c2)cnc1N [Compound 1237, N-(6-amino-5-ethylpyridin-3-yl)-2-((2R,5S)-2-(2-(2-(dimethylamino)propan-2-yl)benzo[d]thiazol-5-yl)-5-methylpiperidin-1-yl)-2-oxoacetamide] | > 7.00 | A (an IC50 ratio greater than or equal to 10 fold) | > 6.00 | > 7.30 | > 7.30 | 6.30 to 7.30 | > 7.00 |  |  |  |  |
| CCc1cc(NC(=O)C(=O)N2C[C@@H](C)CC[C@@H]2c2ccc3sc(-c4ccccn4)nc3c2)cnc1N [Compound 1238, N-(6-amino-5-ethylpyridin-3-yl)-2-((2R,5S)-5-methyl-2-(2-(pyridin-2-yl)benzo[d]thiazol-5-yl)piperidin-1-yl)-2-oxoacetamide] | > 7.00 | A (an IC50 ratio greater than or equal to 10 fold) | > 6.00 | 6.30 to 7.30 | > 7.30 | 6.30 to 7.30 | 6.00 to 7.00 |  |  |  |  |
| CCc1cc(NC(=O)C(=O)N2C[C@@H](C)CC[C@@H]2c2ccc3sc(C4CCNCC4)nc3c2)cnc1N [Compound 1240, N-(6-amino-5-ethyl-3-pyridyl)-2-[(2R,5S)-5-methyl-2-[2-(4-piperidyl)-1,3-benzothiazol-5-yl]-1-piperidyl]-2-oxo-acetamide] |  |  |  |  | > 7.30 | > 7.30 | > 7.00 | > 7.00 | B (an IC50 ratio greater than or equal to 3 fold but lower than 10 fold) | > 6.00 | > 7.30 |
| CCc1cc(NC(=O)C(=O)N2C[C@@H](C)CC[C@@H]2c2ccc3sc(C4CCOC4)nc3c2)cnc1N (stereo partly drawn) [Compound 1242, N-(6-amino-5-ethylpyridin-3-yl)-2-((2R,5S)-5-methyl-2-(2-(tetrahydrofuran-3-yl)benzo[d]thiazol-5-yl)piperidin-1-yl)-2-oxoacetamide] |  |  |  |  | > 7.30 | 6.30 to 7.30 | 6.00 to 7.00 | > 7.00 | A (an IC50 ratio greater than or equal to 10 fold) | > 6.00 | > 7.30 |
| CCc1cc(NC(=O)C(=O)N2C[C@@H](C)CC[C@@H]2c2ccc3sc(N4CCN(C)CC4)nc3c2)cnc1N [Compound 1244, N-(6-amino-5-ethylpyridin-3-yl)-2-((2R,5S)-5-methyl-2-(2-(4-methylpiperazin-1-yl)benzo[d]thiazol-5-yl)piperidin-1-yl)-2-oxoacetamide] |  |  |  |  | > 7.30 | 6.30 to 7.30 | > 7.00 | > 7.00 | A (an IC50 ratio greater than or equal to 10 fold) | > 6.00 | > 7.30 |
| CCc1cc(NC(=O)C(=O)N2C[C@@H](C)CC[C@@H]2c2ccc3sc([C@H]4COCCN4C)nc3c2)cnc1N [Compound 1245, N-(6-amino-5-ethylpyridin-3-yl)-2-((2R,5S)-5-methyl-2-(2-(4-methylmorpholin-3-yl)benzo[d]thiazol-5-yl)piperidin-1-yl)-2-oxoacetamide] |  |  |  |  | > 7.30 | 6.30 to 7.30 | 6.00 to 7.00 | > 7.00 | A (an IC50 ratio greater than or equal to 10 fold) | > 6.00 | > 7.30 |
| CCc1cc(NC(=O)C(=O)N2C[C@@H](C)CC[C@@H]2c2cc(Cl)cc(OCCN(C)C)c2)cnc1N [Compound 1247, N-(6-amino-5-ethylpyridin-3-yl)-2-((2R,5S)-2-(3-chloro-5-(2-(dimethylamino)ethoxy)phenyl)-5-methylpiperidin-1-yl)-2-oxoacetamide] |  |  |  |  | > 7.30 | > 7.30 | 6.00 to 7.00 | > 7.00 | A (an IC50 ratio greater than or equal to 10 fold) | > 6.00 | > 7.30 |
| CCc1cc(NC(=O)C(=O)N2C[C@@H](C)CC[C@@H]2c2ccc3sc(CCN4CCOCC4)nc3c2)cnc1N [Compound 1248, N-(6-amino-5-ethylpyridin-3-yl)-2-((2R,5S)-5-methyl-2-(2-(2-morpholinoethyl)benzo[d]thiazol-5-yl)piperidin-1-yl)-2-oxoacetamide] |  |  |  |  | > 7.30 | > 7.30 | 6.00 to 7.00 | > 7.00 | A (an IC50 ratio greater than or equal to 10 fold) | > 6.00 | > 7.30 |
| CCc1cc(NC(=O)C(=O)N2C[C@@H](C)CC[C@@H]2c2ccc3sc(C4CCN(CC)CC4)nc3c2)cnc1N [Compound 1252, N-(6-amino-5-ethylpyridin-3-yl)-2-((2R,53)-2-(2-(1-ethylpiperidin-4-yl)benzo[d]thiazol-5-yl)-5-methylpiperidin-1-yl)-2-oxoacetamide] |  |  |  |  | > 7.30 | 6.30 to 7.30 | > 7.00 | > 7.00 | A (an IC50 ratio greater than or equal to 10 fold) | > 6.00 | > 7.30 |
| CCc1cc(NC(=O)C(=O)N2C[C@@H](C)CC[C@@H]2c2ccc3sc([C@@H]4CCN(C)C(=O)C4)nc3c2)cnc1N [Compound 1256, N-(6-amino-5-ethyl-3-pyridyl)-2-[(2R,5S)-5-methyl-2-[2-(1-methyl-2-oxo-4-piperidyl)-1,3-benzothiazol-5-yl]-1-piperidyl]-2-oxo-acetamide] |  |  |  |  | > 7.30 | 6.30 to 7.30 | > 7.00 | > 7.00 | A (an IC50 ratio greater than or equal to 10 fold) | > 6.00 | > 7.30 |
| COc1ncc(NC(=O)C(=O)N2C[C@@H](C)CC[C@@H]2c2ccc3sc(C4CN(C)C4)nc3c2)cc1C(N)=O [Compound 1257] |  |  |  |  | > 7.30 | > 7.30 | 6.00 to 7.00 | > 7.00 | A (an IC50 ratio greater than or equal to 10 fold) | > 6.00 | > 7.30 |
